Test results taken from paper PMC3409651 (Journal of agricultural and food chemistry, 2012).

Legend:
[1] = tested on: Sult in FVB mouse liver S9 fraction; test: Sult activity measurements; assay type: in vitro ADME
[2] = Chemical stability of the tested compounds in potassium phosphate buffer; assay type: physicochemical; conditions: 50 mM potassium phosphate buffer (pH 7.4) at 37°C with 0.1% vitamin C
[3] = tested on: Ugt in FVB mouse liver S9 fraction; conditions: male, 10 µM, pH 7.4
Sult and Ugt = test: Sult-Ugt co-reaction system; assay type: in vitro ADME; conditions: male, FVB, mouse, liver S9 fraction
Ugt = Ugt activity measurements; conditions: male, FVB, mouse, liver S9 fraction, pH 7.4
Sult = Sult activity measurements; assay type: in vitro ADME, mouse; conditions: male, FVB, mouse, liver S9 fraction, pH 7.4
[4] = tested on: SULTs in human liver and duodenum S9 fractions; conditions: cited from earlier work
[5] = 10 µM substrate, Sult single reaction, FVB mice liver S9 fraction, n=3

SMILES	sulfation rate [1, 5]	time stable in buffer (chemical stability) [2] [min]	other results
O=c1cc(-c2ccc(O)cc2)oc2ccccc12 [4’-HF, 4’-hydroxyflavone]	0.0793 ± 0.0031 nmol per min per mg of protein	30 to 90	–
O=c1cc(-c2ccccc2)oc2cccc(O)c12 [5-HF, 5-hydroxyflavone]	–	–	sulfation rate ([1]; male, FVB, mouse, 10 µM, pH 7.4): 0.0524 ± 0.0019 nmol per min per mg of protein
O=c1cc(-c2ccccc2)oc2cc(O)cc(O)c12 [5,7-diHF, 5,7-dihydroxyflavone]	–	–	glucuronidation rate, 5-O-G [3]: 0.00 ± 0.00 nmol per min per mg of protein; glucuronidation rate, 7-O-G [3]: 1.0763 ± 0.0399 nmol per min per mg of protein; formation rate of 7-O-sulfate ([1]; male, FVB, mouse, 5 µM, pH 7.4): 0.0387 ± 0.0025 nmol per min per mg of protein
O=c1cc(-c2ccccc2)oc2cc(O)c(O)cc12 [6,7-diHF, 6,7-dihydroxyflavone]	–	–	half-life at 10 µM (Sult and Ugt): 21.2 ± 2.03 min; half-life at 10 µM (Ugt): 26.8 ± 1.32 min; half-life at 10 µM (Sult): 244 ± 36.8 min
O=c1c(O)c(-c2ccc(O)cc2)oc2ccccc12 [3,4’-diHF, 3,4’-dihydroxyflavone]	–	30 to 90	–
O=c1cc(-c2ccccc2)oc2ccc(O)cc12 [6-HF, 6-hydroxyflavone]	0.0211 ± 0.0002 nmol per min per mg of protein	30 to 90	–
O=c1cc(-c2ccccc2O)oc2ccccc12 [2’-HF, 2’-hydroxyflavone]	0.0719 ± 0.0030 nmol per min per mg of protein	30 to 90	–
O=c1c(O)c(-c2ccccc2)oc2ccccc12 [3-HF, 3-hydroxyflavone]	0.00 ± 0.00 nmol per min per mg of protein	30 to 90	sulfation by FVB mice liver S9 fraction (in words) ([1]; 5, 10 and 40 µM substrate, Sult single reaction): not sulfated
O=c1cc(-c2cccc(O)c2)oc2ccccc12 [3’-HF, 3’-hydroxyflavone]	0.0312 ± 0.0095 nmol per min per mg of protein	30 to 90	–
O=c1cc(-c2ccccc2)oc2cc(O)ccc12 [7-HF, 7-hydroxyflavone]	0.0998 ± 0.0061 nmol per min per mg of protein	30 to 90	sulfation by SULTs (in words) [4]: sulfated
